Legend:
Assay type in all cases: cell-based, human
[1] = tested on: HEK293 PCCA−/− cells; assay: Propionyl-CoA alternative metabolites excreted in culture media (mass spectrometry); details: 72 hours; relative to untreated cells
Protocol: FIGS. 14A-14D are graphs showing the quantitation of propionyl-CoA alternative metabolites excreted in the media of FB859 patient and HEK293 PCCA^−/− cultured cells treated with PMA007 or PMA010 for 72 hours: propionylcarnitine (C3-carnitine; FIG. 14A), propionylglycine (C3-glycine; FIG. 14B), hydroxypropionylcarnitine (C3OH-carnitine; FIG. 14C), and hydroxypropionyl glycine (C3OH-glycine, FIG. 14D). Data are presented as percentage to untreated cells. In media of Fb859 cells, the control (Cntl, 0 μM) treatment with glucose and pyruvate, media propionylcarnitine was 0.17 μM, while in the untreated control, which had no glucose or pyruvate, and stripped FBS (no fat) included in the media, propionylcarnitine was 0.433 μM.
Acylcarnitine levels determination: Media from control, Fb826, and treated and untreated patient, Fb859, cells were collected from either the immunohistochemistry cultures or the Seahorse oxygen consumption 96-well plate assays and analyzed for the levels of short chain acylcarnitines plus propionylglycine and hydroxypropionylglycine using a triple quadrupole API4000 mass spectrometer (AB Sciex™, Framingham, MA) equipped with a ExionLC™ 100 HPLC system (Shimadzu Scientific Instruments™, Columbia, MD) as outlined as previously published.

[2] = tested on: control fibroblast cell line FB826; assay: Mitochondrial ROS production using MitoSOX Red; details: FIG. 15A; 180 and 640 μM, 72 h
Excerpt: (§1) FIGS. 15A-15D are graphs showing the measurement of mitochondrial reactive oxygen species (ROS) production using MitoSOX Red as Superoxide indicator probe. FIG. 15A is a graph showing control fibroblast cell line FB826 treated with PMA010, PMA011, PMA019, and PMA020. FIG. 15B is a graph showing propionic acidemia (PA) patients' fibroblast cell linc Fb859 treated with PMA010, PMA011, PMA019, and PMA020. FIG. 15C is a graph showing propionic acidemia (PA) patients' fibroblast cells line Fb900 treated with PMA010, PMA011, PMA019, and PMA020. FIG. 15D is a graph comparing ROS production levels in response to treatment with PMA011 in Control fibroblast cell line (FB826), PA fibroblast cell line (Fb900), and glutaric acidemia II (GA II) patient fibroblast cell lines (Fb930, Fb961). Data are the average of readings from 3 replicate wells.
(§2) Measurement of mitochondrial ROS production using MitoSOX Red as superoxide indicator probe: control (Fb826), PA patient (Fb859, Fb900) and GA II patient (Fb930, Fb961) fibroblasts were grown in regular DMEM media containing glucose/pyruvate/L-glutamine until 85-90% confluency. The cells were harvested and seeded at a concentration of 25,000 cells/80 μl (n=3) in cell culture treated black wall 96 well microplate with clear bottom in regular DMEM media containing glucose/pyruvate/L-glutamine and incubated overnight at 37° C. in a 5% CO2 incubator. Following day, the culture media was replaced in designated wells with the following for 72 h: 150 μl regular DMEM (Glucose+10% FBS+sodium pyruvate+L-glutamine+0.5 mM carnitine). 150 μl of Regular DMEM containing experimental compounds (180 and 640 μM) PMA010 or PMA011 or PMA 019 and (640 μM) PMA020 in control and propionic acidemia patient fibroblasts. 150 μl of regular DMEM containing experimental compounds (600 and 1200 μM) PMA011 in Fb930 and (1200 μM) PMA011 in Fb961 GA II patient fibroblast. After 72 h incubation the wells were washed twice with 150 μL of Seahorse XFDMEM base media and in respective designated wells the following Assay buffer (150 μL of seahorse XFDMEM base media containing glucose, sodium pyruvate and Glutamine) was used along with 5 μM MitoSOX reagent and incubated at 37° C. non-CO2 incubator for 15 minutes protected from light. After 15 minutes incubation the cells were washed twice with 150 μL of seahorse XFDMEM base media and replaced with measurement buffer, which is same as the wash buffer. The fluorescence was monitored with excitation at 520 nm and emission at 580 nm. Finally, cells were lysed, and protein content was determined. Data is normalized to protein concentration and fluorescence is reported as MitoSOX Red (AFU)/mg protein.

[3] = tested on: propionic acidemia (PA) fibroblast cell line Fb900; assay: Mitochondrial ROS production using MitoSOX Red; details: FIG. 15C; 180 and 640 μM, 72 h
Excerpt: as §1, §2

C[C@@H](NC(=O)CCCCC(=O)O)C(=O)N[C@H](Cc1c[nH]cn1)C(=O)O [PMA010, 6-(((R)-1-(((R)-1-carboxy-2-(1H-imidazol-4-yl)ethyl)amino)-1-oxopropan-2-yl)amino)-6-oxohexanoic acid]
reduction in hydroxypropionyl glycine in media [1]: 80%
reduction in propionylcarnitine in media [1]: 59%
reduction in propionylglycine in media [1]: 41%
ROS detected (MitoSOX Red) [2]: significant decrease in ROS
ROS detected (MitoSOX Red) [3]: significant decrease in ROS

— patent publication US20260021186A1, “Fatty Acid-D-Amino Acid Peptides Conjugates as Anaplerotic Compounds for Use in Treating Propionic Acidemia, Methylmalonic Acidurias, and Energy Metabolic Disorders” (University of Pittsburgh - Of the Commonwealth System of …, priority 2022, published 2026)
